Assay results from patent US20190358201A1 (NantCell, Inc., priority 2018, published 2019).

Key:
[1] = Sensitivity and worst-case sensitivity analysis of PFS, aldoxorubicin vs doxorubicin (ITT population, independent assessment); format: in vivo, human; settings: for HR (95% CI): stratified Cox regression; for PFS Events: 42 doxorubicin / 84 aldoxorubicin patients
Protocol: Sensitivity Analysis: To assess the impact of censoring the 8 patients with no baseline imaging at the date of randomization, a sensitivity analysis was conducted where a PFS event was imputed at the date of randomization. This analysis is presented in Table 1 showing the sensitivity analysis of PFS (ITT Population^a).
(§1) PFS is defined as the time from randomization to the date of first objective documentation of disease progression or death (any cause), whichever comes first. CI=Confidence interval; ECOG=Eastern Cooperative Oncology Group; HR=Hazard ratio; PFS=Progression-free survival; PS=Performance status. ^a The ITT Population comprised all randomized patients. ^bP-value is from stratified log-rank test with ECOG PS (0 to 1, 2) and chemotherapy (no prior chemotherapy or prior adjuvant/neoadjuvant chemotherapy) as stratification factors. Hazard ratio and 95% CI are from a Cox regression model stratified by ECOG PS (0 1, 2) and chemotherapy (no prior chemotherapy or prior adjuvant/neoadjuvant chemotherapy).
This analysis is presented in Table 2 (Worst-Case Sensitivity Analysis of PFS (ITT population^a)).
as §1, with “status. ^aThe” for “status. ^a The”, “randomized patients.^b P-value” for “randomized patients. ^bP-value”, “is based on a” for “is from”

[2] = LVEF changes, Phase 2 study (INNO-206-P2-STS-01); format: in vivo, human; settings: for Subjects with LVEF < 50% at any post-baseline cycle / Subjects with a 10% fall in LVEF: Phase 2, doxorubicin median 4 cycles of 75 mg/m^2 (N 40), aldoxorubicin median 6 cycles of 350 mg/m^2 (N 83)
[3] = LVEF changes, Phase 3 study (P3-STS-01); format: in vivo, human
[4] = Cardiac function by 2D echocardiogram in patients treated for at least 6 cycles of aldoxorubicin (Phase 1/2 with ifosfamide/mesna and Phase 3 alone); format: in vivo, human
Protocol: Fifty-two patients enrolled in a Phase 1/2 study of aldoxorubicin and ifosfamide/mesna and a Phase 3 study using aldoxorubicin alone were treated for at least 6 cycles of aldoxorubicin at either 250 mg/m^2 or 350 mg/m^2 per dose i. v. every 3 weeks. Cardiac function using 2D echocardiogram was evaluated at regular intervals every two cycles of aldoxorubicin until end of treatment and every six months after completion of the treatment.
After treatment, the cumulative aldoxorubicin dose for these patients ranged from […] to 7,500 mg/m^2. […] Ventricular ejection fractions ranged from 45-74% baseline, and 50-77% at end of treatment, median being 60% both at the beginning and end of treatment. Therefore, it should be appreciated that aldoxorubicin lacks cardiotoxicity in these patients treated with aldoxorubicin, alone or in combination with ifosfamide/mesna.

[5] = Tolerability of higher total cumulative doses of aldoxorubicin in patients; format: in vivo, human
Protocol: Based on the results above, the inventors investigated whether even higher total cumulative doses of aldoxorubicin could be tolerated. To that end, patients were administered total cumulative dosages of up to 3,000 mg/m^2, up to 4,000 mg/m^2, up to 5,000 mg/m^2, up to 6,000 mg/m^2, up to 7,000 mg/m^2, up to 8,000 mg/m^2, up to 9,000 mg/m^2, up to 10,000 mg/m^2, up to 11,000 mg/m^2, up to 12,000 mg/m^2, up to 13,000 mg/m^2, up to 14,000 mg/m^2, and even higher. […] As described herein, cardiotoxicity may be monitored by monitoring the level of metabolite doxorubicinol in the cardiac cells. Suitable cumulative dosages of aldoxorubicin include those that will not adversely affect LVEF. As such, LVEF of patients receiving aldoxorubicin will typically be in the range of 55% to 70%. Thus, in some embodiments, the patients may have LVEF of 55%-60%, or 60%-65%, or 65%-70%. Less preferably, aldoxorubicin may be administered to the patient until reaching a slightly lower than normal LVEF, say between 50%-54%, or 45%-50%, or 40%-45%.

[6] = Alopecia induction in patients; format: in vivo, human; settings: aldoxorubicin administered instead of doxorubicin
soft tissue sarcoma = settings: vs investigator's choice, entire study population; p=0.12, 95% CI 0.64-1.06; cited from earlier work
[7] = cited from earlier work
[8] = Formation of doxorubicinol metabolite and pharmacokinetics after administration; settings: after administration to patients
[9] = sensitivity analysis of PFS, text to Table 1 / FIG. 2
[10] = sensitivity analysis, PFS event imputed at randomization for 8 patients without baseline imaging, ITT, independent assessment
[11] = sensitivity analysis, ITT, independent assessment
[12] = worst-case sensitivity analysis, PFS event imputed at date of censoring, ITT
[13] = worst-case sensitivity analysis, ITT, independent assessment
[14] = Phase 3, doxorubicin N 47, aldoxorubicin N 213

## COc1cccc2c1C(=O)c1c(O)c3c(c(O)c1C2=O)C[C@@](O)(/C(CO)=N/NC(=O)CCCCCN1C(=O)C=CC1=O)C[C@@H]3O[C@H]1C[C@H](N)[C@H](O)[C@H](C)O1 [Aldoxorubicin, (6-maleimidocaproyl) hydrazone derivative of doxorubicin]
[1]; [9]
  Median PFS: 170 days
[1]; sensitivity analysis of PFS, aldoxorubicin vs doxorubicin, p=0.032, 95% CI [0.38, 0.95]
  HR as stated in text: 0.60
[1]; sensitivity analysis of PFS, aldoxorubicin vs doxorubicin
  HR (95% CI): 0.60 (0.38, 0.95)
[1]; [10]
  PFS Events: 52
[1]; [11]
  Median PFS: 132.0 days
[1]; worst-case sensitivity analysis of PFS, aldoxorubicin vs doxorubicin
  HR (95% CI): 0.63 (0.43, 0.93)
[1]; [12]
  PFS Events: 84
[1]; [13]
  Median PFS: 88.5 days
[2]; Phase 2, aldoxorubicin treatment group
  Decreases in LVEF (MUGA or echocardiogram): no clinically relevant decreases in LVEF were observed
[2]
  Subjects with LVEF < 50% at any post-baseline cycle: 0 n (%)
  Subjects with a 10% fall in LVEF: 9 (12.2) n (%)
[3]; Phase 3, 350 mg/m^2/cycle, up to 40 cycles, as compared to doxorubicin
  Cardiotoxicity: minimal or no cardiotoxicity
[3]; [14]
  Subjects with LVEF below 50% of any post-baseline visit: 15 (7) n (%)
  Subjects with ≥ 20% LVEF decrease from baseline at any post-baseline visit: 9 (4.2) n (%)
[4]; both at the beginning and end of treatment
  Ventricular ejection fraction, median: 60%
[4]; eleven patients with prior doxorubicin, cumulative aldoxorubicin dose 1,000 to 7,500 mg/m^2
  Clinical congestive heart failure: no patient developed any sign or symptom of clinical congestive heart failure
[4]; end of treatment, baseline range 45-74%
  Ventricular ejection fraction at end of treatment (range): 50-77%
[4]; up to doxorubicin equivalent doses of 7,500 mg/m^2, alone or with ifosfamide/mesna
  Cardiac toxicity: did not find any evidence of cardiac toxicity
[5]; cumulative dose equivalent to doxorubicin significantly more than 10× 550 mg/m^2
  Cardiotoxicity: no or substantially reduced cardiotoxicity
[5]; patients, doxorubicin equivalent doses even beyond 3000 mg/m^2
  Cardiotoxicity: no cardiotoxicity was observed
[5]; total cumulative doses of 14,000 mg/m^2
  Tolerability, cardiotoxicity and/or LVEF: tolerated without any significant effect on cardiotoxicity and/or LVEF
[6]
  Alopecia induction: minimal alopecia induction
Soft tissue sarcoma
  PFS hazard ratio (HR): 0.81
[7]; Clin Cancer Res 2007, 13(16)
  Recommended doxorubicin equivalent dose: 260 mg/m^2
[8]
  Formation of doxorubicinol: no detectable doxorubicinol
[8]; listed as doxorubicin after modification with N-c-maleimidocaproic acid hydrazide
  Formation of doxorubicinol: did not lead to significant quantities of doxorubicinol

## COc1cccc2c1C(=O)c1c(O)c3c(c(O)c1C2=O)C[C@@](O)(C(=O)CO)C[C@@H]3O[C@H]1C[C@H](N)[C@H](O)[C@H](C)O1 [Doxorubicin, reference compound]
[1]; [9]
  Median PFS: 83 days
[1]; [10]
  PFS Events: 29
[1]; [11]
  Median PFS: 82.0 days
[1]; [12]
  PFS Events: 42
[1]; [13]
  Median PFS: 48.0 days
[2]
  Subjects with LVEF < 50% at any post-baseline cycle: 3 (8.6) n (%)
  Subjects with a 10% fall in LVEF: 10 (29.4) n (%)
[3]; [14]
  Subjects with LVEF below 50% of any post-baseline visit: 9 (19.1) n (%)
[7]; limit set in view of cardiotoxicity
  Allowable maximum cumulative lifetime dose: 550 mg/m^2
